Results as given in patent US9744221B2, “Method and compositions for inhibiting or preventing adverse effects of oral antibiotics” (Synthetic Biologics, Inc., priority 2014, dated 2017).

Experiments:
intestinal microbiome = assay: Fecal microbiome whole genome shotgun sequencing in piglets given oral amoxicillin with or without SYN-004 (Example 1); format: in vivo, Yorkshire piglets; conditions: Day -7 to Day 9, FIGS. 3 and 4
in vivo = conditions: Yorkshire, pig, po, 20 mg/kg

concentration at 1 h (in vivo): 8900 ± 800 ng/mL
concentration at 3 h (in vivo): 3900 ± 300 ng/mL
concentration at 8 h (in vivo): 1500 ± 300 ng/mL
SMILES: CC1(C)S[C@@H]2[C@H](NC(=O)[C@H](N)c3ccc(O)cc3)C(=O)N2[C@H]1C(=O)O [amoxicillin, Amoxicillin]
diversity of the microbiome (median percent similarity of strain relative abundance) (intestinal microbiome): continued to lose diversity throughout the duration of the study
